For data set [1], the system named is guinea-pig eosinophils. In words: Chemotaxis inhibition assay: LTB4-induced chemotaxis in guinea-pig eosinophils. It is filed as cell-based. The settings on record: test substance 1×10^−5 M, LTB4 10^−8 M, 2 hours; for inhibition at 10 µM: Cavia porcellus, Eosinophil. Here is the method: 1) Guinea-pig Eosinophil Preparation
Male Hartley guinea-pigs received 2 ml of equine serum (Bio-Whittaker, Inc) intraperitoneally once a week for successive 8 weeks. 48 hours after the last administration, 75 ml of physiological saline was injected into the peritoneal cavity, and the fluid was recovered and centrifuged at 400 G for 5 minutes. […] Erythrocytes in the isolated cell pellet, if any, were removed by hypotonic treatment (suspended in water for 30 seconds).
2) Chemotaxis Inhibition Assay
600 μl of LTB4 suspended in Hanks-Hepes-HSA (final concentration of 10^−8 M, Cascade Biochemical Ltd.) was placed in the lower compartment of a 24-well plate and kept at 37° C. for 30 minutes in a CO2 gas incubator. After mounting a Chemotaxicell (polycarbonate membrane, pore size 3 μm, thickness 10 μm), which served as an upper compartment, on the 24-well plate described above, 200 μl of eosinophil suspension (5×10^6 cells/ml), which had been incubated at 37° C. for 15 minutes in a thermostat chamber, was added to the upper compartment. After allowing to react for 2 hours in the CO2 gas incubator, the Chemotaxicell was removed, and 60 μl of 2% (w/v) EDTA solution in physiological saline was added to the lower compartment. After cooling on ice, the cells which underwent the chemotaxis into the lower compartment were counted using a blood cell counter (Coulter Counter (trade name)). In the procedure described above, the test substance was dissolved in N,N-dimethylformamide (DMF) and added to the upper and lower compartments at the final concentration of 10^−5 M.
% Chemotaxis inhibition=[…] [Equation 2]
The results are shown in [Table 2].

Data set [2] has as its system histamine-induced dermal vascular hyperpermeability. In words: Effect on histamine-induced dermal vascular hyperpermeability in guinea pigs. The class given is in vivo, guinea pig. The settings on record: 3 mg/kg oral administration, 1 hour before intradermal histamine, male Hartley guinea pigs; for inhibition in vivo at 3 mg/kg: Cavia porcellus. Here is the method:
Effect on Histamine-induced Dermal Vascular Hyperpermeability in Guinea Pigs
Male Hartley guinea pigs (weighing about 500 g) were used. […] After 30 minutes, the animal was hit on its head to make it unconscious, and cut at its neck to sacrifice by exsanguination. The dorsal skin was peeled and examined for the long and short diameters (mm) of each blue spot which were then multiplied to give a product, which was averaged to give a vascular permeability index. Each substance was suspended in 5% gum arabic solution, and given orally in the volume of 0.2 ml/100 g body weight 1 hour before histamine administration. Control animals received the same volume of 5% gum arabic solution. A % inhibition of this reaction was calculated according to [Equation 1].
% Inhibition of histamine-induced dermal vascular hyperpermeability=100×(1-vascular permeability index in treatment group/vascular permeability index in control group) [Equation 1]

Structures can show the parent of a compound that is named as a salt.

Compound `CCOC(=O)CN(C)C(=O)Cn1c(=O)c2ccccc2n(CCCCN2CCC(OC(c3ccccc3)c3ccccc3)CC2)c1=O.Cl` [Example 110, 2,4-Dioxo-1-[4-(4-diphenylmethoxypiperidino)butyl]-N-ethoxycarbonylmethyl-N-methyl-1,2,3,4-tetrahydroquinazoline-3-acetamide hydrochloride] came in with a melting point of 170 to 172 °C. Also, the inhibition at 10 µM in data set [1] was found to be 122%.
For `O=c1[nH]c(=O)n(CCCCN2CCC(OC(c3ccccc3)c3ccccc3)CC2)c2ccc(Cl)cc12` [Example 10, 6-Chloro-2,4-dioxo-1-[4-(4-diphenylmethoxypiperidino)butyl]-1,2,3,4-tetrahydroquinazoline] the same measures were 209 to 210 °C and 50%.
For `CCOC(=O)CCNC(=O)Cn1c(=O)c2ccccc2n(CCCCN2CCC(OC(c3ccccc3)c3ccccc3)CC2)c1=O.Cl` [Example 111, 2,4-Dioxo-1-[4-(4-diphenylmethoxypiperidino)butyl]-N-(2-ethoxycarbonylethyl)-1,2,3,4-tetrahydroquinazoline-3-acetamide hydrochloride] the same measures were 123 to 124 °C and 80%.
In data set [2], `CCOC(=O)C(C)(C)n1c(=O)c2cc(Cl)ccc2n(CCCCN2CCC(OC(c3ccccc3)c3ccccc3)CC2)c1=O` [Example 35, Ethyl 2-[6-chloro-1-[4-(4-diphenylmethoxypiperidino)butyl]-2,4-dioxo-1,2,3,4-tetrahydroquinazolin-3-yl]isobutyrate hydrochloride] showed an inhibition in vivo at 3 mg/kg of 87%.
For `CC(C)(C(=O)O)n1c(=O)c2cc(F)ccc2n(CCCCN2CCC(OC(c3ccccc3)c3ccccc3)CC2)c1=O` [Example 124, 2-[2,4-Dioxo-1-[4-(4-diphenylmethoxypiperidino)butyl]-6-fluoro-1,2,3,4-tetrahydroquinazolin-3-yl]isobutyric acid hydrochloride], in data set [2], the inhibition in vivo at 3 mg/kg turned out to be 90%.
Turning to `CCOC(=O)CCn1c(=O)c2ccccc2n(CCCCN2CCC(OC(c3ccccc3)c3ccccc3)CC2)c1=O` [Example 17, Ethyl 2,4-dioxo-1-[4-(4-diphenylmethoxypiperidino)butyl]-1,2,3,4-tetrahydroquinazoline-3-propionate hydrochloride], the inhibition in vivo at 3 mg/kg in data set [2] was determined as 91%.
Same read-out and setting: as for `O=C(O)CCCn1c(=O)c2ccccc2n(CCCCN2CCC(OC(c3ccccc3)c3ccccc3)CC2)c1=O` [Example 53, 2,4-Dioxo-1-[4-(4-diphenylmethoxypiperidino)butyl]-1,2,3,4-tetrahydroquinazoline-3-butyric acid], the figure is 90%.
`O=c1c2ccccc2n(CCCCN2CCC(OC(c3ccccc3)c3ccccc3)CC2)c(=O)n1CCO` [Example 55, 2,4-Dioxo-1-[4-(4-diphenylmethoxypiperidino)butyl]-3-(2-hydroxyethyl)-1,2,3,4-tetrahydroquinazoline] displayed a melting point of 145 to 150 °C. Moreover, the inhibition at 10 µM in data set [1] amounted to 64%.
For `Cl.O=c1[nH]c(=O)n(CCCN2CCC(OC(c3ccccc3)c3ccccc3)CC2)c2ncccc12` [Example 6, 2,4-Dioxo-1-[3-(4-diphenylmethoxypiperidino)propyl]-1,2,3,4-tetrahydropyrido[2,3-d]pyrimidine hydrochloride] the same measures were 131 to 133 °C and 67%.
On to `CC(C)(C(=O)O)n1c(=O)c2cc(F)c(F)cc2n(CCCCN2CCC(OC(c3ccccc3)c3ccccc3)CC2)c1=O` [Example 125, 2-[2,4-Dioxo-1-[4-(4-diphenylmethoxypiperidino)butyl]-6,7-difluoro-1,2,3,4-tetrahydroquinazolin-3-yl]isobutyric acid hydrochloride], for which the inhibition in vivo at 3 mg/kg in data set [2] worked out at 81%.
With `O=c1nc2n(CCCCN3CCC(OC(c4ccccc4)c4ccccc4)CC3)ccnc-2c(=O)[nH]1` [Example 8, 2,4-Dioxo-8-[4-(4-diphenylmethoxypiperidino)butyl]-1,2,3,4-tetrahydropteridine], in data set [2], the “Inhibition of histamine-induced dermal vascular hyperpermeability (%)” value is listed as 92%.
In turn, `COc1ccc(Cn2c(=O)c3ccccc3n(CCCCN3CCC(OC(c4ccccc4)c4ccccc4)CC3)c2=O)cc1` [Example 26, 2,4-Dioxo-1-[4-(4-diphenylmethoxypiperidino)butyl]-3-(4-methoxybenzyl)-1,2,3,4-tetrahydroquinazoline] displayed a melting point of 99 to 100 °C. For the same compound, the inhibition at 10 µM in data set [1] turned out to be 50%.
In data set [2], `CCOC(=O)CCCCn1c(=O)c2ccccc2n(CCCCN2CCC(OC(c3ccccc3)c3ccccc3)CC2)c1=O` [Example 94, Ethyl 2,4-dioxo-1-[4-(4-diphenylmethoxypiperidino)butyl]-1,2,3,4-tetrahydroquinazoline-3-valerate hydrochloride] registered an inhibition in vivo at 3 mg/kg of 83%.
As to `O=C(O)CCCCCn1c(=O)c2ccccc2n(CCCCN2CCC(OC(c3ccccc3)c3ccccc3)CC2)c1=O` [Example 98, 2,4-Dioxo-1-[4-(4-diphenylmethoxypiperidino)butyl]-1,2,3,4-tetrahydroquinazoline-3-hexanoic acid], the melting point lay within 155 to 157 °C. Further, in data set [1], the inhibition at 10 µM stood at 50%.
As for “N-(2-Carboxylethyl)-carboxylmethyl-2,4-dioxo-1-[4-(4-diphenylmethoxypiperidino)butyl]-N-methyl-1,2,3,4-tetrahydroquinazoline-3-acetamide [Example 115]”, the “Inhibition (%) of LTB4-induced chemotaxis” value in data set [1] came to 56%.
The compound `Cc1ccc2c(c1)c(=O)[nH]c(=O)n2CCCCN1CCC(OC(c2ccccc2)c2ccccc2)CC1` [Example 13, 2,4-Dioxo-1-[4-(4-diphenylmethoxypiperidino)butyl]-6-methyl-1,2,3,4-tetrahydroquinazoline] registered a melting point of 180 to 182 °C. For the same compound, the inhibition at 10 µM in data set [1] was 66%.
`COC(=O)C1(n2c(=O)c3ccccc3n(CCCCN3CCC(OC(c4ccccc4)c4ccccc4)CC3)c2=O)CCCCC1` [Example 97, Methyl 1-[2,4-dioxo-1-[4-(4-diphenylmethoxypiperidino)butyl]-1,2,3,4-tetrahydroquinazolin-3-yl]-1-cyclohexylcarboxylate hydrochloride]: in data set [1], the inhibition at 10 µM is 62%.
In the case of `CN(CCc1ccccc1)C(=O)Cn1c(=O)c2ccccc2n(CCCCN2CCC(OC(c3ccccc3)c3ccccc3)CC2)c1=O.Cl` [Example 56, 2,4-Dioxo-1-[4-(4-diphenylmethoxypiperidino)butyl]-N-methyl-N-(2-phenethyl)-1,2,3,4-tetrahydroquinazoline-3-acetamide hydrochloride], in data set [1], the “Inhibition (%) of LTB4-induced chemotaxis” value came out at 73%.
`CC(C)(C)n1c(=O)c2ccccc2n(CCCCN2CCC(OC(c3ccccc3)c3ccccc3)CC2)c1=O.Cl` [Example 22, 3-(1,1-Dimethylethyl)-2,4-dioxo-1-[4-(4-diphenylmethoxypiperidino)butyl]-1,2,3,4-tetrahydroquinazoline hydrochloride] showed a melting point of 229 to 231 °C. Besides, in data set [1], the inhibition at 10 µM was determined as 72%.
Take `COC(=O)Cc1ccc2c(c1)c(=O)[nH]c(=O)n2CCCCN1CCC(OC(c2ccccc2)c2ccccc2)CC1` [Example 86, Methyl 2,4-dioxo-1-[4-(4-diphenylmethoxypiperidino)butyl]-1,2,3,4-tetrahydroquinazoline-6-acetate]: in data set [1], the inhibition at 10 µM is 55%.

Values taken from patent US6407116B1, “Nitrogenous fused-ring compounds, process for the preparation of the same, and drugs” (Takeda Chemical Industries, Inc., priority 1997, dated 2002).
